Like-named read-outs stand apart in the source and are kept apart here.
What was measured:
[1] = tested on: MDA-MB-231 cells; assay: Cell validation: cytotoxicity in MDA-MB-231 cells (CellTiter-Glo); type: cell-based; settings: cytotoxicity in MDA-MB-231 cells; for IC50: Homo sapiens
Summary of the method: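 MDA-MB-231 cells were seeded at 2000 cells/well and exposed to compounds for the specified number of days. Medium was then replaced with a 1:1 CellTiter-Glo reagent/serum-supplemented DMEM mix for 10 min, and viability was read as luminescence, proportional to living cell number.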

[2] = target: T1, KIF2C (Homo sapiens, UniProt Q99661); assay: In vitro validation: KIF2C kinesin activity, malachite green-based phosphate colorimetric assay; type: biochemical; settings: concentration that inhibits 50% of KIF2C activity
T1 construct: KIF2C (216-598 a.a.); 6xHis (C); made in house; host or cells: E. coli BL21 (DE3), pET-28a
Summary of the method: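 KIF2C sN+M construct (aa 216-598, C-terminal 6×His, E. coli-expressed) ATPase activity with microtubules from porcine brain tubulin or HEK293 (293Fs) cells in BRB80 (80 mM PIPES pH 6.8, 1 mM GTP, 10% DMSO), 37° C for 2 hr. Released phosphate detected by malachite green reagent, 10 min, A650.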

[3] = tested on: 4T1 R4 cells; assay: Cell viability assay, 4T1 R4 cells; type: cell-based, mouse; settings: for CI (combination index), MTA with 7S9: 2 μM 7S9, Chou and Talalay method; for IC50: 72 hr; for Fold change in chemosensitivity (IC50 single / 7S9 combination): 2 μM 7S9
Method: (§1) MCF-7, MDA-MB-231, MDA-MB-468, Hs578T, 4T1, and HeLa cell lines stably expressing H2B-mCherry and eGFP-tubulin (kindly provided by Dr. Anthony A. Hyman, Max-Planck-Institute for Molecular Cell Biology and Genetics, Dresden, Germany) were cultured in high-glucose Dulbecco's Modified Eagle Medium (DMEM). SK-BR-3 cells were cultured in McCoy's Modified 5a Medium. Hs578T cells were cultured in high-glucose DMEM supplemented with an additional 0.01 mg/mL bovine insulin. […] All mentioned media were supplemented with 10% fetal bovine serum (Gibco) and 1% Penicillin/Streptomycin (Corning), and cells were incubated at 37° C. in a humidified atmosphere containing 5% CO2. HEK293 cells were cultured in HE300 medium (GMEP incorporated, Japan) and maintained in suspension culture with 125 rpm and 8% CO2.
(§2) The cancer cells were cultured in a 96-well plate at a confluence of 1000-2000 cells/well with indicated drugs for specific days. When the time was up, the culture medium in the plate was aspirated and replaced with a prepared CellTiter-Glo reagent/DMEM mixture (1:1 mix of CellTiter-Glo reagent and serum-supplemented DMEM). After incubation for 10 min, the luminescence (proportional to the number of living cells) was measured with an ELISA plate reader to determine the cell viability.

[4] = tested on: 4T1 R8 cells; assay: Cell viability assay, 4T1 R8 cells; type: cell-based, mouse; settings: for CI (combination index), MTA with 7S9: 2 μM 7S9, Chou and Talalay method; for IC50: 72 hr; for Fold change in chemosensitivity (IC50 single / 7S9 combination): 2 μM 7S9
Method: as §1, §2

[5] = Mus musculus, drug alone, read-out: IC50 (nM), Single
[6] = MTA with 2 μM 7S9, read-out: IC50 (nM), Combination

T1 sequence (Q99661 216-598): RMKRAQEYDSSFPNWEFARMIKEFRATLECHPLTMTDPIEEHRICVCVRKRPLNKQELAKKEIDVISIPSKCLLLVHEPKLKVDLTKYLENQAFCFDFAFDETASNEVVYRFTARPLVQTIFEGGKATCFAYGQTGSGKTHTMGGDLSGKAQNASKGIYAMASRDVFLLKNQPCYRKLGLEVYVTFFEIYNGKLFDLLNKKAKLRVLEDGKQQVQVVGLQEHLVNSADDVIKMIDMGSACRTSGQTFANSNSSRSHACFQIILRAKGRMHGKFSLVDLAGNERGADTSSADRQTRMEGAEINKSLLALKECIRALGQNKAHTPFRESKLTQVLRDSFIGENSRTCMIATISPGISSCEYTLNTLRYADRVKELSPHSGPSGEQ

| EC50 [2] [µM] | Structure (SMILES) | IC50 [1] [µM] | further results |
| --- | --- | --- | --- |
| 50 to 100 | CC1=C(C(=O)OC(C)C)C(c2ccc(Cl)cc2)n2c(s/c(=C\c3ccc(OCC(=O)NCC4CCN(C)CC4)cc3)c2=O)=N1 (stereo not drawn) [Compound 138] | 20 to 50 |  |
| 50 to 100 | CC1=C(C(=O)OC(C)C)C(c2ccc(Cl)cc2)n2c(s/c(=C\c3ccc(OCC(=O)N4CCC(N(C)C)CC4)cc3)c2=O)=N1 (stereo not drawn) [Compound 139] | 20 to 50 |  |
| 50 to 100 | CNc1ccc(C2C(C(=O)OC(C)C)=C(C)N=c3s/c(=C\c4ccc(OCC(=O)N5CCN(C)CC5)cc4)c(=O)n32)cc1 (stereo not drawn) [Compound 140] | 20 to 50 |  |
| < 50 | CC1=C(C(=O)OC(C)C)C(c2ccc(C(F)(F)F)cc2)n2c(s/c(=C\c3ccc(OCC(=O)N4CCN(C)CC4)cc3)c2=O)=N1 (stereo not drawn) [Compound 141] | 20 to 50 |  |
| 50 to 100 | CCOC(=O)C1=C(C)N=c2s/c(=C\c3ccc(OCC(=O)N4CCN(C)CC4)cc3)c(=O)n2C1c1ccc(N(C)C)cc1 (stereo not drawn) [Compound 143] | 20 to 50 |  |
| 50 to 100 | CC1=C(C(=O)OC(C)(C)C)C(c2ccc(N(C)C)cc2)n2c(s/c(=C\c3ccc(OCC(=O)N4CCN(C)CC4)cc3)c2=O)=N1 (stereo not drawn) [Compound 144] | 20 to 50 |  |
| < 50 | CCOC(=O)C1=C(C)N=c2s/c(=C\c3ccc(OCC(=O)N4CCN(CC)CC4)cc3)c(=O)n2C1c1ccc(N(C)C)cc1 (stereo not drawn) [Compound 146] | 20 to 50 |  |
| < 50 | CCN1CCN(C(=O)COc2ccc(/C=c3\sc4n(c3=O)C(c3ccc(N(C)C)cc3)C(C(=O)OC(C)C)=C(C)N=4)cc2)CC1 (stereo not drawn) [Compound 147] |  | Cell validation (IC50) [1]: + + |
| < 50 | CCN1CCN(C(=O)COc2ccc(/C=c3\sc4n(c3=O)C(c3ccc(N(C)C)cc3)C(C(=O)OC(C)(C)C)=C(C)N=4)cc2)CC1 (stereo not drawn) [Compound 148] |  | Cell validation (IC50) [1]: + + |
| < 50 | CC1=C(C(=O)O)C(c2ccc(N(C)C)cc2)n2c(s/c(=C\c3ccc(OCC(=O)N4CCC(N5CCN(C)CC5)CC4)cc3)c2=O)=N1 (stereo not drawn) [Compound 149] | > 50 |  |
| 50 to 100 | CCOC(=O)C1=C(C)N=c2s/c(=C\c3ccc(OCC(=O)N4CCC(N5CCN(C)CC5)CC4)cc3)c(=O)n2C1c1ccc(N(C)C)cc1 (stereo not drawn) [Compound 150] | 20 to 50 |  |
| 50 to 100 | CC1=C(C(=O)OC(C)(C)C)C(c2ccc(N(C)C)cc2)n2c(s/c(=C\c3ccc(OCC(=O)N4CCC(N5CCN(C)CC5)CC4)cc3)c2=O)=N1 (stereo not drawn) [Compound 152] | 20 to 50 |  |
|  | CC(=O)O[C@@]12CO[C@@H]1C[C@H](O)[C@@]1(C)C(=O)[C@H](O)C3=C(C)[C@@H](OC(=O)[C@H](O)[C@@H](NC(=O)OC(C)(C)C)c4ccccc4)C[C@@](O)([C@@H](OC(=O)c4ccccc4)[C@H]21)C3(C)C [Docetaxel, docetaxel] |  | CI (combination index), MTA with 7S9 [3]: 0.45; IC50 [3, 5]: 358 nM; CI (combination index), MTA with 7S9 [4]: 0.50; IC50 [4, 5]: 208 nM |
|  | C=C1C[C@@H]2CC[C@@]34C[C@H]5O[C@H]6[C@@H](O3)[C@H]3O[C@H](CC[C@@H]3O[C@H]6[C@H]5O4)CC(=O)C[C@@H]3[C@@H](OC)[C@@H](C[C@H](O)CN)O[C@H]3C[C@H]3O[C@@H](CC[C@@H]1O2)C[C@@H](C)C3=C [Eribulin, eribulin] |  | Fold change in chemosensitivity (IC50 single / 7S9 combination) [3]: 30; CI (combination index), MTA with 7S9 [3]: 0.48; IC50 [3, 6]: 14.5 nM; IC50 [3, 5]: 442 nM; Fold change in chemosensitivity (IC50 single / 7S9 combination) [4]: 21; CI (combination index), MTA with 7S9 [4]: 0.54; IC50 [4, 6]: 13.6 nM; IC50 [4, 5]: 284 nM |
|  | C/C(=C\c1csc(C)n1)[C@@H]1C[C@@H]2O[C@]2(C)CCC[C@H](C)[C@H](O)[C@@H](C)C(=O)C(C)(C)[C@@H](O)CC(=O)N1 [Ixabepilone, ixabepilone] |  | IC50 [3, 5]: 358 nM; IC50 [4, 5]: 234 nM |
|  | CCC1=C[C@@H]2CN(C1)Cc1c([nH]c3ccccc13)[C@@](C(=O)OC)(c1cc3c(cc1OC)N(C)[C@H]1[C@@](O)(C(=O)OC)[C@H](OC(C)=O)[C@]4(CC)C=CCN5CC[C@]31[C@@H]54)C2 [Vinorelbine, vinorelbine] |  | Fold change in chemosensitivity (IC50 single / 7S9 combination) [3]: 69; CI (combination index), MTA with 7S9 [3]: 0.46; IC50 [3, 5]: 159 nM; Fold change in chemosensitivity (IC50 single / 7S9 combination) [4]: 43; CI (combination index), MTA with 7S9 [4]: 0.51; IC50 [4, 5]: 104 nM |

| Structure (SMILES) | EC50 [2] [µM] | IC50 [1] [µM] | further results |
| --- | --- | --- | --- |
| CC1=C(C(=O)O)C(c2ccc(N(C)C)cc2)n2c(s/c(=C\c3ccc(OCC(=O)N4CCN(C)CC4)cc3)c2=O)=N1 (stereo not drawn) [Compound 142] | 50 to 100 | > 50 |  |
| CCN1CCN(C(=O)COc2ccc(/C=c3\sc4n(c3=O)C(c3ccc(N(C)C)cc3)C(C(=O)O)=C(C)N=4)cc2)CC1 (stereo not drawn) [Compound 145] | < 50 | > 50 |  |

From patent publication US20250129101A1, “Compound, Pharmaceutical Composition Comprising the Same and Method for Treating Cancer Using the Same” (NATIONAL TSING HUA UNIVERSITY, priority 2023, published 2025)
